Results published in the supplement of paper PMC10307832.

How the values were obtained:
Experiment in all cases: relative viability (nuclei count vs DMSO), 5 days (fraction); higher = more cells survive
[1] = system: SW 1573
Procedure, shortened: (§1)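 Nuclei were stained with Hoechst during a one-step fixation (final 0.05% Triton X-100, 1% formaldehyde, 1 ug/ml Hoechst) carried out 5 days after dosing, then counted on 4× images. The cells, lung cancer lines in 1536-well plates, had been dosed by pin tool the day after seeding with one drug alone or a fixed anchor-drug dose plus five library-drug doses (not always all listed) in √10 steps. Relative viability is the nuclei count in treated wells divided by that in vehicle wells, and each value is the median of duplicate plates.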

[2] = system: NCI-H727
Procedure, shortened: as §1

[3] = system: LC-2-ad
Procedure, shortened: as §1

[4] = system: HCC-15
Procedure, shortened: as §1

[5] = system: LU99A
Procedure, shortened: as §1

[6] = system: BEN
Procedure, shortened: as §1

[7] = system: NCI-H1563
Procedure, shortened: as §1

[8] = system: NCI-H650
Procedure, shortened: as §1

[9] = system: NCI-H2023
Procedure, shortened: as §1

[10] = system: NCI-H2126
Procedure, shortened: as §1

[11] = system: NCI-H3122
Procedure, shortened: as §1

[12] = system: EMC-BAC-2
Procedure, shortened: as §1

[13] = system: NCI-H1915
Procedure, shortened: as §1

[14] = system: NCI-H1755
Procedure, shortened: as §1

[15] = system: NCI-H1437
Procedure, shortened: as §1

[16] = system: HOP-62
Procedure, shortened: as §1

[17] = system: NCI-H1734
Procedure, shortened: as §1

[18] = system: HCC-44
Procedure, shortened: as §1

CCNC(=O)c1noc(-c2cc(C(C)C)c(O)cc2O)c1-c1ccc(CN2CCOCC2)cc1 [Luminespib] + CC(C)C[C@H](NC(=O)[C@H](Cc1ccccc1)NC(=O)c1cnccn1)B(O)O [Bortezomib] (partner 0.002 µM)
relative viability ([1]; first compound 0.002 µM): 1.07 | relative viability ([1]; first compound 0.006325 µM): 0.941 | relative viability ([1]; first compound 0.02 µM): 0.96 | relative viability ([1]; first compound 0.06325 µM): 0.117 | relative viability ([1]; first compound 0.2 µM): 0.114 | relative viability ([2]; first compound 0.002 µM): 0.802 | relative viability ([2]; first compound 0.006325 µM): 0.782 | relative viability ([2]; first compound 0.02 µM): 0.379 | relative viability ([2]; first compound 0.06325 µM): 0.23 | relative viability ([2]; first compound 0.2 µM): 0.215 | relative viability ([3]; first compound 0.002 µM): 0.733 | relative viability ([3]; first compound 0.006325 µM): 1.02 | relative viability ([3]; first compound 0.02 µM): 1.1 | relative viability ([3]; first compound 0.06325 µM): 0.133 | relative viability ([3]; first compound 0.2 µM): 0.0947 | relative viability ([4]; first compound 0.002 µM): 1.03 | relative viability ([4]; first compound 0.006325 µM): 0.906 | relative viability ([4]; first compound 0.02 µM): 1.11 | relative viability ([4]; first compound 0.06325 µM): 0.517 | relative viability ([4]; first compound 0.2 µM): 0.152 | relative viability ([5]; first compound 0.002 µM): 1.3 | relative viability ([5]; first compound 0.006325 µM): 1.11 | relative viability ([5]; first compound 0.02 µM): 0.538 | relative viability ([5]; first compound 0.06325 µM): 0.105 | relative viability ([5]; first compound 0.2 µM): 0.117 | relative viability ([6]; first compound 0.002 µM): 0.914 | relative viability ([6]; first compound 0.006325 µM): 0.542 | relative viability ([6]; first compound 0.02 µM): 0.438 | relative viability ([6]; first compound 0.06325 µM): 0.424 | relative viability ([6]; first compound 0.2 µM): 0.239 | relative viability ([7]; first compound 0.002 µM): 0.956 | relative viability ([7]; first compound 0.006325 µM): 0.821 | relative viability ([7]; first compound 0.02 µM): 0.535 | relative viability ([7]; first compound 0.06325 µM): 0.479 | relative viability ([7]; first compound 0.2 µM): 0.507 | relative viability ([8]; first compound 0.002 µM): 0.737 | relative viability ([8]; first compound 0.006325 µM): 0.716 | relative viability ([8]; first compound 0.02 µM): 0.651 | relative viability ([8]; first compound 0.06325 µM): 0.124 | relative viability ([8]; first compound 0.2 µM): 0.103 | relative viability ([9]; first compound 0.002 µM): 1.04 | relative viability ([9]; first compound 0.006325 µM): 0.958 | relative viability ([9]; first compound 0.02 µM): 0.29 | relative viability ([9]; first compound 0.06325 µM): 0.069 | relative viability ([9]; first compound 0.2 µM): 0.0759 | relative viability ([10]; first compound 0.002 µM): 1.09 | relative viability ([10]; first compound 0.006325 µM): 1.03 | relative viability ([10]; first compound 0.02 µM): 0.79 | relative viability ([10]; first compound 0.06325 µM): 1.07 | relative viability ([10]; first compound 0.2 µM): 0.823 | relative viability ([11]; first compound 0.002 µM): 1.01 | relative viability ([11]; first compound 0.006325 µM): 1.01 | relative viability ([11]; first compound 0.02 µM): 1.05 | relative viability ([11]; first compound 0.06325 µM): 0.165 | relative viability ([11]; first compound 0.2 µM): 0.199 | relative viability ([12]; first compound 0.002 µM): 1.1 | relative viability ([12]; first compound 0.006325 µM): 1.02 | relative viability ([12]; first compound 0.02 µM): 0.844 | relative viability ([12]; first compound 0.06325 µM): 1.1 | relative viability ([12]; first compound 0.2 µM): 0.913 | relative viability ([13]; first compound 0.002 µM): 0.976 | relative viability ([13]; first compound 0.006325 µM): 0.995 | relative viability ([13]; first compound 0.02 µM): 1.02 | relative viability ([13]; first compound 0.06325 µM): 0.942 | relative viability ([13]; first compound 0.2 µM): 0.442 | relative viability ([14]; first compound 0.002 µM): 0.992 | relative viability ([14]; first compound 0.006325 µM): 0.909 | relative viability ([14]; first compound 0.02 µM): 0.954 | relative viability ([14]; first compound 0.06325 µM): 0.528 | relative viability ([14]; first compound 0.2 µM): 0.169 | relative viability ([15]; first compound 0.002 µM): 0.511 | relative viability ([15]; first compound 0.006325 µM): 0.38 | relative viability ([15]; first compound 0.02 µM): 0.431 | relative viability ([15]; first compound 0.06325 µM): 0.247 | relative viability ([15]; first compound 0.2 µM): 0.0895 | relative viability ([16]; first compound 0.002 µM): 0.652 | relative viability ([16]; first compound 0.006325 µM): 0.924 | relative viability ([16]; first compound 0.02 µM): 0.852 | relative viability ([16]; first compound 0.06325 µM): 0.856 | relative viability ([16]; first compound 0.2 µM): 0.0907 | relative viability ([17]; first compound 0.002 µM): 1.06 | relative viability ([17]; first compound 0.006325 µM): 0.823 | relative viability ([17]; first compound 0.02 µM): 0.698 | relative viability ([17]; first compound 0.06325 µM): 0.118 | relative viability ([17]; first compound 0.2 µM): 0.117 | relative viability ([18]; first compound 0.002 µM): 0.895 | relative viability ([18]; first compound 0.006325 µM): 0.881 | relative viability ([18]; first compound 0.02 µM): 1.09 | relative viability ([18]; first compound 0.06325 µM): 0.139 | relative viability ([18]; first compound 0.2 µM): 0.145
